Experiment: recombinant barcode read abundance after kanamycin selection (control-corrected) (log10(CPM+1)); higher = more efficient recombination; sequences stand for … in AGTGCAGAGAAAATCGGCCAGTTTTCTCTGCCTGCAGTCCGCATGCCGT…AGATTTATGCAGCGGACTGCCTTTCTCCCAAAGTGATAAACCGGACAGTATCATGGACCGGTTTTCCCGGTAATCCGTATTTGCAAGGTTGGTTTCACT; site = the 11-nt target
Procedure: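 Pooled E. coli target-specificity screen for the IS621 bridge recombinase. Each library plasmid pairs an 11-nt target (CT core) with a bridge RNA whose target-binding loop (9-nt LTG + 4-nt RTG) is reprogrammed; the rest of the 177-nt WT IS621 bridge RNA scaffold is fixed. The plasmid is co-electroporated with a WT donor plasmid; recombinase is induced with 0.1 mM IPTG and recombinants are selected on kanamycin. Recombinant barcodes are sequenced, converted to CPM, averaged over two biological replicates and corrected by the unselected control CPM. Molecule = full bridge RNA written as DNA: LTG = specificity nt 1-9, RTG = reverse complement of specificity nt 8-11, in the WT scaffold.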
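Further: IS621 recombinase and bridge RNA in Escherichia coli cells.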

Sequence | recombinant barcode read abundance (log10)
AGAGAGGCTTGGGTTCTAACCTGTTGCGG (site AGAGAGGCTCC) | 1.82
AGAGAGGCTTGGGTTCTAACCTGTTGCGG (site CGAGAGTCTCC) | 0.125
AGAGAGTCTTGGGTTCTAACCTGTTGCTT (site AGAGAGTCTAA) | 1.99
AGAGAGTCTTGGGTTCTAACCTGTTGCTT (site ATAGAGTCTAA) | 0.602
AGAGCGACTTGGGTTCTAACCTGTTGCCT (site AGAGAGACTAG) | 0.127
AGAGCGACTTGGGTTCTAACCTGTTGCCT (site AGAGCGACTAG) | 0.727
AGAGCGACTTGGGTTCTAACCTGTTGCCT (site AGAGGGACTAG) | 0.587
AGAGCGACTTGGGTTCTAACCTGTTGCCT (site AGAGTGACTAG) | 0.0332
AGAGCGACTTGGGTTCTAACCTGTTGCTA (site AGAGCGACTTA) | 0.654
AGAGCGACTTGGGTTCTAACCTGTTGCTA (site CTCTACCCTCT) | 0.147
AGAGCTCCTTGGGTTCTAACCTGTTGCCG (site AGAGCTCCTCG) | 1.03
AGAGCTCCTTGGGTTCTAACCTGTTGCCG (site AGATCTCCTAG) | 0.468
AGAGGAGCTTGGGTTCTAACCTGTTGCAG (site AGAGATGCTCT) | 0.115
AGAGGAGCTTGGGTTCTAACCTGTTGCAG (site AGAGGAGCTCT) | 1.79
AGAGGGACTTGGGTTCTAACCTGTTGCCT (site AGAGAGACTAG) | 1.25
AGAGGGACTTGGGTTCTAACCTGTTGCCT (site AGAGCGACTAG) | 0.0189
AGAGGGACTTGGGTTCTAACCTGTTGCCT (site AGAGGGACTAG) | 2.34
AGAGGGACTTGGGTTCTAACCTGTTGCCT (site AGAGTGACTAG) | 0.0172
AGAGTAGCTTGGGTTCTAACCTGTTGCAC (site AGAGTAGCTGT) | 2.41
AGAGTAGCTTGGGTTCTAACCTGTTGCAC (site GTTTATACTTG) | 0.0243
AGAGTAGCTTGGGTTCTAACCTGTTGCTA (site AGAGTAGCTTA) | 1.31

Sequence | recombinant barcode read abundance (log10)
AGAGTAGCTTGGGTTCTAACCTGTTGCTA (site CTCCCGACTGC) | 0.0353
AGATAGCCTTGGGTTCTAACCTGTTGCCT (site AGATAGCCTAG) | 2.01
AGATAGCCTTGGGTTCTAACCTGTTGCCT (site CGATAGCCTAG) | 0.102
AGATAGCCTTGGGTTCTAACCTGTTGCCT (site GGATAGCCTAG) | 0.157
AGATAGCCTTGGGTTCTAACCTGTTGCCT (site TGATAGCCTAG) | 0.206
AGATCCACTTGGGTTCTAACCTGTTGCCT (site AGATCCACTAG) | 0.832
AGATCCACTTGGGTTCTAACCTGTTGCCT (site CGATCCACTAG) | 0.0967
AGATCCACTTGGGTTCTAACCTGTTGCCT (site GGATCCACTAG) | 0.0847
AGATCCACTTGGGTTCTAACCTGTTGCCT (site TGATCCACTAG) | 0.0724
AGATGGACTTGGGTTCTAACCTGTTGCAG (site AGATGGACTCT) | 2.52
AGATGGACTTGGGTTCTAACCTGTTGCAG (site AGATGGCCTAT) | 0.0344
AGATTCGCTTGGGTTCTAACCTGTTGCCG (site AGATTCCCTCG) | 0.0487
AGATTCGCTTGGGTTCTAACCTGTTGCCG (site AGATTCGCTCG) | 0.941
AGATTTACTTGGGTTCTAACCTGTTGCCT (site AAACTTACTAG) | 1.28
AGATTTACTTGGGTTCTAACCTGTTGCCT (site AGATTTACTAG) | 0.143
AGCACGACTTGGGTTCTAACCTGTTGCTG (site AGCACGACTCA) | 0.684
AGCACGACTTGGGTTCTAACCTGTTGCTG (site AGCAGGACTCG) | 0.157
AGCAGAGCTTGGGTTCTAACCTGTTGCTG (site AGCAGAGCTCA) | 1.39
AGCAGAGCTTGGGTTCTAACCTGTTGCTG (site AGCAGAGCTCC) | 1.94
AGCAGAGCTTGGGTTCTAACCTGTTGCTG (site AGCAGAGCTCG) | 0.133
AGCAGAGCTTGGGTTCTAACCTGTTGCTG (site AGCAGAGCTCT) | 0.93

Sequence | recombinant barcode read abundance (log10)
AGCATCACTTGGGTTCTAACCTGTTGCCT (site AACATCACTCG) | 0.135
AGCATCACTTGGGTTCTAACCTGTTGCCT (site AGCATCACTAG) | 0.499
AGCATTGCTTGGGTTCTAACCTGTTGCCT (site AGCATTGCTAG) | 0.235
AGCATTGCTTGGGTTCTAACCTGTTGCCT (site AGCCTTGCTAG) | 0.629
AGCATTGCTTGGGTTCTAACCTGTTGCCT (site AGCGTTGCTAG) | 0.724
AGCATTGCTTGGGTTCTAACCTGTTGCCT (site AGCTTTGCTAG) | 0.0996
AGCCACCCTTGGGTTCTAACCTGTTGCCT (site AGCCACACTAG) | 0.201
AGCCACCCTTGGGTTCTAACCTGTTGCCT (site AGCCACCCTAG) | 0.425
AGCCACCCTTGGGTTCTAACCTGTTGCCT (site AGCCACGCTAG) | 0.265
AGCCACCCTTGGGTTCTAACCTGTTGCCT (site AGCCACTCTAG) | 0.522
AGCCGCCCTTGGGTTCTAACCTGTTGCAT (site AGCCGCCCTAT) | 0.172
AGCCGCCCTTGGGTTCTAACCTGTTGCAT (site CGCCGCCCTAG) | 0.119
AGCCGTACTTGGGTTCTAACCTGTTGCCT (site AGACGTACTAG) | 0.129
AGCCGTACTTGGGTTCTAACCTGTTGCCT (site AGCCGTACTAG) | 0.341
AGCCGTACTTGGGTTCTAACCTGTTGCCT (site AGGCGTACTAG) | 0.318
AGCCGTACTTGGGTTCTAACCTGTTGCCT (site AGTCGTACTAG) | 0.0183
AGCCTGCCTTGGGTTCTAACCTGTTGCCT (site AGCCTGACTAG) | 0.0617
AGCCTGCCTTGGGTTCTAACCTGTTGCCT (site AGCCTGCCTAG) | 0.389
AGCCTGCCTTGGGTTCTAACCTGTTGCCT (site AGCCTGGCTAG) | 0.549
AGCCTGCCTTGGGTTCTAACCTGTTGCCT (site AGCCTGTCTAG) | 0.0826
AGCCTGTCTTGGGTTCTAACCTGTTGCCT (site AGCCTGACTAG) | 0.444

Sequence | recombinant barcode read abundance (log10)
AGCCTGTCTTGGGTTCTAACCTGTTGCCT (site AGCCTGCCTAG) | 0
AGCCTGTCTTGGGTTCTAACCTGTTGCCT (site AGCCTGGCTAG) | 0.143
AGCCTGTCTTGGGTTCTAACCTGTTGCCT (site AGCCTGTCTAG) | 1.36
AGCGAATCTTGGGTTCTAACCTGTTGCCG (site AGCGAATCTCG) | 0.217
AGCGAATCTTGGGTTCTAACCTGTTGCCG (site GAGCGTCCTTA) | 0.232
AGCGCGACTTGGGTTCTAACCTGTTGCCT (site AGCGCGACTAG) | 0.381
AGCGCGACTTGGGTTCTAACCTGTTGCCT (site AGGACGACTAG) | 0.338
AGCGCTCCTTGGGTTCTAACCTGTTGCGT (site AGCCCTCCTAT) | 0.532
AGCGCTCCTTGGGTTCTAACCTGTTGCGT (site AGCGCTCCTAC) | 0.646
AGCGGGCCTTGGGTTCTAACCTGTTGCCT (site AGCGGACCTAG) | 0.382
AGCGGGCCTTGGGTTCTAACCTGTTGCCT (site AGCGGCCCTAG) | 1.08
AGCGGGCCTTGGGTTCTAACCTGTTGCCT (site AGCGGGCCTAG) | 0.313
AGCGGGCCTTGGGTTCTAACCTGTTGCCT (site AGCGGTCCTAG) | 0.072
AGCTAAACTTGGGTTCTAACCTGTTGCCT (site AGCTAAACTAG) | 0.256
AGCTAAACTTGGGTTCTAACCTGTTGCCT (site AGCTTATCTAG) | 0.141
AGCTACTCTTGGGTTCTAACCTGTTGCTT (site AGCTACTCTAA) | 0.694
AGCTACTCTTGGGTTCTAACCTGTTGCTT (site AGTTAATCTAA) | 0.144
AGCTCATCTTGGGTTCTAACCTGTTGCCT (site AGCTCACCTAG) | 0.0516
AGCTCATCTTGGGTTCTAACCTGTTGCCT (site AGCTCATCTAG) | 0.0912

Reference: the supplement of paper PMC11208160
